Assay in all cases: ATP formation, hexokinase/G6PDH end-point assay
Holding throughout (assay type): biochemical
Holding throughout (conditions): 2.5 mM ADP, 2 mM MgCl2, 100 mM KCl, HEPES pH 7.4, 5-65 °C

The target in assay [1] is T1, AKm (Bacillus subtilis, UniProt P16304).
T1 construct: gene adk; full length (residues 1-217), pET11a, E. coli BL21 (DE3); Affi-Gel blue and size exclusion, no tag mentioned

The target in assay [2] is T2, AKp (Sporosarcina globispora, UniProt P84139).
T2 construct: gene adk; full length (residues 1-217), pET30a, E. coli BL21 (DE3); Affi-Gel blue and size exclusion, no tag mentioned

Assay [3] addresses T3, AKp (Sporosarcina globispora, UniProt P84139, T26I).
T3 construct: gene adk; full length (residues 1-217), pET30a, E. coli BL21 (DE3); Affi-Gel blue and size exclusion, no tag mentioned

Assay [4] deals with T4, AKm (Bacillus subtilis, UniProt P16304, I26T).
T4 construct: gene adk; full length (residues 1-217), pET11a, E. coli BL21 (DE3); Affi-Gel blue and size exclusion, no tag mentioned

Consider 1 compound from paper PMC6498869, “Structural and mutational analyses of psychrophilic and mesophilic adenylate kinases highlight the role of hydrophobic interactions in protein thermal stability” (Structural Dynamics, 2019).

T4 sequence (P16304 whole entry I26T, the tested form may be a part): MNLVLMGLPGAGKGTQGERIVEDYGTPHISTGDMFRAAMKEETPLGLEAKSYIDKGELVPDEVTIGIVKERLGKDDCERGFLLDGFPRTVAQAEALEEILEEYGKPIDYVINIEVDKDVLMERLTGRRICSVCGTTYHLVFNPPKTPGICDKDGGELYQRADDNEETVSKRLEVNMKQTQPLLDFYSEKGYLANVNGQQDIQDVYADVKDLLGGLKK
T1 sequence (P16304 whole entry, the tested form may be a part): as the sequence (P16304 whole entry I26T, the tested form may be a part) above, with T26I counted along it
T3 sequence (P84139 whole entry T26I, the tested form may be a part): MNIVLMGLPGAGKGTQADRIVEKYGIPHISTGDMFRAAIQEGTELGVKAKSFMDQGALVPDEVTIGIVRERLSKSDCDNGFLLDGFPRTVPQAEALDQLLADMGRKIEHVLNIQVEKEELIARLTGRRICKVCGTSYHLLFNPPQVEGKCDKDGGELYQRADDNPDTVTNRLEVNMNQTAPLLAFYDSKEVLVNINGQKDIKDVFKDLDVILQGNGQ
T2 sequence (P84139 whole entry, the tested form may be a part): as the sequence (P84139 whole entry T26I, the tested form may be a part) above, with I26T counted along it

For the compound `Nc1ncnc2c1ncn2[C@@H]1O[C@H](COP(=O)(O)OP(=O)(O)O)[C@@H](O)[C@H]1O` [ADP], the “ATP formation, hexokinase/G6PDH end-point assay” value at AKm [1] is “The activity assays of WT AKm and the I26T mutant also showed consistent results”; on AKp [2] it was “we determined the temperature dependence of the activities of WT AKp and its T26I mutant”; at AKp [3] it was “we determined the temperature dependence of the activities of WT AKp and its T26I mutant”; at AKm [4], “The activity assays of WT AKm and the I26T mutant also showed consistent results”.
